Measurements published in patent US9296692B2, “Use of indolyl and indolinyl hydroxamates for treating heart failure of neuronal injury” (TAIPEI MEDICAL UNIVERSITY, priority 2011, dated 2016).
Values joined by “and” are separate entries in the source; they are usually repeats but may differ in a detail not shown here. Equal entries are not always repeated.

What was measured:
MCAO rats = assay: Infarction volume (TTC staining) in middle cerebral artery occlusion (MCAO) rats; format: in vivo; conditions: 30 mg/Kg intravenous, N=5 per group, 3 days
Protocol: (§1) In this example, effects of compounds of this invention were varified using ischematic stroke animal model.
(§2) The bilateral common carotid arteries were isolated through a neck incision and occluded with aneurysm clips. […] After 60 minutes, rats were re-anesthetized, the carotid clips were removed, and the neck incision was closed. The rats were returned to their home cage after fully recovered from anesthesia. The sham surgery is similar to the MCAO surgery, which included the step of opening the dura, yet without the steps of isolating, clipping, or coagulating neither the MCA nor carotid vessel.
Compound 1 was dissolved in 5% ethanol, 35% polyethylene glycol and 60% normal saline at a concentration of 15 mg/ml. […]
Medicaments prepared in accordance with steps described in Example 4.2 were given to the 3 groups of MCAO rats of Example 4.1 (N=5, for each group), and the infraction area of these animals were then stained and estimated by similar steps described in Examples 3.4 and 3.5, and results are illustrated in FIGS. 7A and 7B. […] In another example, after induction of MACO, rats were infused with compound 1 at 30 min, 2 hrs, 4 hrs, and 24 hrs, respectively; and the infarction volume was calculated 3 days after MCAO.

[1] = test system: cAMP response element-binding protein (CREB); assay: Western blot analysis of CREB in brain of MCAO rats; format: in vivo; conditions: 30 mg/Kg intravenous, RA, LA, RP, LP brain areas
Protocol: as §1, §2
Compound 1 was dissolved in 5% ethanol, 35% polyethylene glycol and 60% normal saline at a concentration of 15 mg/ml. All test animals received intravenous injection of either compound 1 (30 mg/Kg), valproic acid (VPA, 30 mg/kg) or vehicle (5% ethanol, 35% polyethylene glycol and 60% normal saline) at 0-7 days after MCAO.
Collected protein samples were mixed with Laemli sample buffer. […] The Immunoblottingquantification was fulfilled via Quantity OneTMsoftware (Bio-Rad).
Level of CREB phosphorylaiton was measured by western blot ananlysis in accordance with steps described in Example 4.3. […]

TBI rats = assay: Skilled forelimb reaching task in TBI rats; format: in vivo, Sprague-Dawley rats; conditions: 30 mg/Kg intravenous at 0-7 days after TBI
Source text: Adult male Sprague-Dawley rats (each weighted about 250-300 g, and were purchased from BioLASCO Taiwan Co., Ltd) were used in this study. The rats were randomly allocated into three groups: (i) TBI+test Compound (e.g., Compound 1 or valproic acid (VPA)), (ii) TBI+VEH (i.e., vehicle-treated TBI rats), and (iii) Sham (sham-operated control). They were housed in an animal room under temperature control (24-25) and 12:12 light-dark cycle. Standard laboratory rat chow and tap water were available ad libitum. All animal experiments were carried out in accordance with the guidelines established by the Institutional Animal Care and Utilization Committee of the Taipei Medical University (Taipei, Taiwan, R.O.C.).
Surgical anesthesia was induced by ketamine (90 mg/kg body weight) and xylazine (10 mg/kg body weight), which were administered intraperitoneally (ip). Following anesthesia, the animals were secured in a stereotaxic frame and ventilated mechanically. A cortical contusion was produced on the exposed cortex using a controlled impactor device TBI-0200 TBI Model system (Precision Systems and Instrumentation). […]
All test animals were trained to criterion on the skilled forelimb reaching task. […] During the initial days of training, limb preference was determined and placement of pellets was adjusted to favor the use of the preferred forelimb. […]

heart failure (HF) rats = assay: Echocardiography in isoproterenol-induced heart failure (HF) rats; format: in vivo, Wistar rats
Protocol: Adult male Wistar rats (each weighted about 240-270 g, and were purchased from BioLASCO Taiwan Co., Ltd) were used in this study. […] Heart failure (HF) rats received one subcutaneous injection of isoproterenol at a dosage of 100 mg/Kg. They were housed in an animal room under temperature control (24-25° C.) and 12:12 light-dark cycle. Standard laboratory rat chow and tap water were available ad libitum. […] A midline thoracotomy was then performed, and the heart was removed, weighed, and dissected from each rat for further analysis. Echocardiograms were performed before the animals were euthanized, using HP Sonos 5500 system with a 15-6L probe (6 to 15 MHz, SONOS 5500, Agilent Technologies, Palo Alto, Calif.) or Vivid I ultrasound cardiovascular system (GE Healthcare, Haifa, Israel). LV end-diastolic diameter (LVEDD), LV end-systolic diameter (LVESD), and wall thickness were measured from M-mode tracings. The LV fractional shortening percentage was calculated as ([LVEDD-LVESD]/LVEDD)×100. The LV ejection fraction was calculated by Techholz's formula. All quantitative data are expressed as the mean±S.E.M, and un-paired T test was used to compare the differences between groups.

[2] = HF rats, after treatment, 100 mg/kg oral gavage once daily for 7 days, mean±S.E.M
[3] = HF rats, before treatment (baseline of the group), n = 7, mean±S.E.M

For `CCCC(CCC)C(=O)O` [VPA, valproic acid], the “Infarction volume, FIG. 7A” value (MCAO rats) was “significant reduction of infarction volume”, the “Up-regulation of CREB (p-CREB and t-CREB), FIG. 8” value [1] was “up-regulation of cAMP response element-binding protein (CREB)” and the “Behaviour function deficits (skilled forelimb reaching task), FIG. 6” value (TBI rats) was “significantly improve the behaviour function deficits caused by TBI”.
In the case of `O=C(/C=C/c1ccc2c(ccn2S(=O)(=O)c2ccccc2)c1)NO` [compound 1, 3-(1-benzensulfonyl-1H-indol-5-yl)-N-hydroxy-acrylamide], the Fraction shortening (heart failure (HF) rats; [2]) is reported as 47 ± 3 %, the IVSd (heart failure (HF) rats; [2]) is reported as 1.3 ± 0.1 mm and the LVEDd (heart failure (HF) rats; [2]) is reported as 4.6 ± 0.2 mm. The LVESd (heart failure (HF) rats; [2]) was 2.4 ± 0.2 mm, the Ejection fraction (heart failure (HF) rats; HF rats, after treatment, 100 mg/kg oral gavage once daily for 7 days, mean±S.E.M, 100 mg/kg) was 81% and 81 ± 3 % and the Ejection fraction (heart failure (HF) rats; [3]) was 68 ± 2%. The Fraction shortening (heart failure (HF) rats; [3]) was 38 ± 3%, the IVSd (heart failure (HF) rats; [3]) was 1.4 ± 0.1 mm and the LVEDd (heart failure (HF) rats; [3]) was 5.4 ± 0.4 mm. It also gave an LVESd (heart failure (HF) rats; [3]) of 3.4 ± 0.3 mm.
For `NNc1nncc2ccccc12` [hydralazine, reference compound], the Ejection fraction (heart failure (HF) rats; HF rats (isoproterenol 150 mg/kg s.c.), after 10 mg/kg i.p. once daily for 7 days, data not shown) was 76±10% and the Ejection fraction (heart failure (HF) rats; HF rats (isoproterenol 150 mg/kg s.c.), starting value that the ejection fraction increased from, data not shown) was 59±4%.
